Earlier results, collected in US8759282B2, “Water-soluble films comprising low-viscosity alginates” (Uppsalagruppen Medical AB, priority 2005, dated 2014).
Read-outs that look alike come from different tables or passages of the source.

Experiments:
[1] = not given; remark: listed apart in the source

Row | Solubility in water (listed as ibuprofen) | SMILES | Solubility in water | pKa [1]
1 |  | CC(=O)Nc1ccc(O)cc1 [Substance 1, N-Acetyl-p-aminophenol] | only slightly soluble in water | 
2 |  | CC(=O)Oc1ccccc1C(=O)O [Substance 2, 2-Acetoxibensoesyra] | 1 g/100 g of water | 
3 | only slightly soluble in water | CC(C)Cc1ccc(C(C)C(=O)O)cc1 (stereo not drawn) [Substance 3, p-Isobutylhydratropic acid] | slightly soluble in water | 
4 |  | CN1CCC[C@H]1c1cccnc1 [Substance 4, (S)-3-(1-Methyl-2-pyrrolidinyl)pyridine] | liquid miscible with water | 8.5
